According to patent US20210196817A1, “Compositions and Methods for Selectively Modulating Tregs” (Augusta University Research Institute, Inc., priority 2014, published 2021):

Assays:
Tconvs (CD4+Foxp3-) [1] = test: pAkt (S473) phosphorylation by flow cytometry in activated Tconvs; format: cell-based, mouse; conditions: 10 nM, 100 nM and 1 μM, 72 hrs, anti-CD3/anti-CD28/IL-2 activated
Procedure: (§1) Negative selection of CD4 T-cells from splenocytes was performed using magnetic bead separation technique according to the manufacturer's recommendations R&D Systems (Minneapolis, Minn.). Tregs (CD4+Foxp3+) and Tconvs (CD4+Foxp3-) were sorted from enriched CD4 cells using FACS ARIA II cell sorter (BD Biosciences).
(§2) Sorted Tregs and Tconvs were labeled with VCT according to the manufacturer's protocol (Life Technologies, NY). Cells stimulated with and without inhibitors in the presence of 10 μg/mL plate-bound anti-CD3, 2.5 μg/mL soluble anti-CD28, and 100 IU/mL IL-2. After 3 days, cells were stained with live/dead cell stain (Life Technologies, NY), fixed, permeabelized and stained with anti-CD4-FITC and anti-Foxp3-AlexaFluor 647. For pAkt (S473) and pS6 analysis, the signal was amplified by using a biotin-conjugated donkey anti-rabbit antibody (BD Biosciences) and Streptavidin-PE. After staining, cells were acquired on LSRII SORP flow cytometer and analyzed using FlowJo software (Tree Star).
(§3) The phosphorylation status of Akt (S473) in activated Tregs and Tconvs was measured by flow cytometry after treatment with titrated concentrations of the individual inhibitors. The concentrations choice was based on previously published IC50 of the inhibitors (Table 1) and the in-vitro viability of T-cells. Concentrations that maintain more than 70% viability of the T-cells were used.

Tregs (CD4+Foxp3+) [2] = test: pAkt (S473) phosphorylation by flow cytometry in activated Tregs; format: cell-based, mouse; conditions: 10 nM, 100 nM and 1 μM, 72 hrs, anti-CD3/anti-CD28/IL-2 activated
Procedure: as §1, §2, §3

Tregs (CD4+Foxp3+) [3] = test: Continuous inhibition of PI3Kδ in vivo: Tregs, CD4 and CD8 cells, incl. tumor infiltration
PI3Kα = PI3Kα (Homo sapiens, UniProt P42336); conditions: previously published IC50; cited from earlier work
PI3Kγ = PI3Kγ (Homo sapiens, UniProt P48736); conditions: previously published IC50; cited from earlier work
Tconvs (CD4+Foxp3-) [4] = test: Violet Cell Trace proliferation assay, Tconvs; format: cell-based, mouse; conditions: all tested concentrations, 3 days, anti-CD3/anti-CD28/IL-2
Procedure: (§4) Sorted Tregs and Tconvs were labeled with VCT according to the manufacturer's protocol (Life Technologies, NY). Cells stimulated with and without inhibitors in the presence of 10 μg/mL plate-bound anti-CD3, 2.5 μg/mL soluble anti-CD28, and 100 IU/mL IL-2. After 3 days, cells were stained with live/dead cell stain (Life Technologies, NY), fixed, permeabelized and stained with anti-CD4-FITC and anti-Foxp3-AlexaFluor 647. […] After staining, cells were acquired on LSRII SORP flow cytometer and analyzed using FlowJo software (Tree Star).

Tregs (CD4+Foxp3+) [5] = test: Violet Cell Trace proliferation assay, Tregs; format: cell-based, mouse; conditions: all tested concentrations, 3 days, anti-CD3/anti-CD28/IL-2
Procedure: as §4

PI3Kδ = PI3Kδ (Homo sapiens, UniProt O00329); conditions: previously published IC50; cited from earlier work
Chain of PI3Kδ (O00329 whole entry): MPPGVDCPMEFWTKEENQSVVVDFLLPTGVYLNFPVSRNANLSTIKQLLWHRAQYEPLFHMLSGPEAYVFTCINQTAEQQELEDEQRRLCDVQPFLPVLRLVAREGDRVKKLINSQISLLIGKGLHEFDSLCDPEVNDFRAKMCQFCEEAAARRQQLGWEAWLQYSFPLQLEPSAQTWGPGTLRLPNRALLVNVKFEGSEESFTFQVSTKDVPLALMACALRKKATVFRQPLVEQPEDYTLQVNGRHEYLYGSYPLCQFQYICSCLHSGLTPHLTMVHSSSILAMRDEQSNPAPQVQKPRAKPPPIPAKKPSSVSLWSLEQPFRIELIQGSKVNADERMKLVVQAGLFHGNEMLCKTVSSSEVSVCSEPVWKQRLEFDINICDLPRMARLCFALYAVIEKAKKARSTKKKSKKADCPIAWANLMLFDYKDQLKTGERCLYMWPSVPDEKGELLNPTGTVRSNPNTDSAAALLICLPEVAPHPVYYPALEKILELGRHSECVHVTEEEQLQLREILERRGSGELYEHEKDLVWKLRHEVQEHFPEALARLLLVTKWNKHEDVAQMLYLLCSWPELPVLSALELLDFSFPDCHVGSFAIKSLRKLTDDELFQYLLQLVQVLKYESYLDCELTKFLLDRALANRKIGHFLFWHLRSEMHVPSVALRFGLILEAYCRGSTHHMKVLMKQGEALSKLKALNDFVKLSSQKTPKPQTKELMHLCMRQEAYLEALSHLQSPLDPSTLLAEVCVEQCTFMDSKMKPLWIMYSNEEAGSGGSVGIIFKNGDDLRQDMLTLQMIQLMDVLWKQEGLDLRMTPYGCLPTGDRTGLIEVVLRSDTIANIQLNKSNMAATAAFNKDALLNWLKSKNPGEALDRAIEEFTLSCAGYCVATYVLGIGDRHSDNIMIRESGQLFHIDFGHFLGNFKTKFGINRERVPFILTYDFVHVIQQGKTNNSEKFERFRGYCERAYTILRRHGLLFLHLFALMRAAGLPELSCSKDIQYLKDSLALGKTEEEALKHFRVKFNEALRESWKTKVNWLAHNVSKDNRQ
Chain of PI3Kδ (P27986 whole entry partner): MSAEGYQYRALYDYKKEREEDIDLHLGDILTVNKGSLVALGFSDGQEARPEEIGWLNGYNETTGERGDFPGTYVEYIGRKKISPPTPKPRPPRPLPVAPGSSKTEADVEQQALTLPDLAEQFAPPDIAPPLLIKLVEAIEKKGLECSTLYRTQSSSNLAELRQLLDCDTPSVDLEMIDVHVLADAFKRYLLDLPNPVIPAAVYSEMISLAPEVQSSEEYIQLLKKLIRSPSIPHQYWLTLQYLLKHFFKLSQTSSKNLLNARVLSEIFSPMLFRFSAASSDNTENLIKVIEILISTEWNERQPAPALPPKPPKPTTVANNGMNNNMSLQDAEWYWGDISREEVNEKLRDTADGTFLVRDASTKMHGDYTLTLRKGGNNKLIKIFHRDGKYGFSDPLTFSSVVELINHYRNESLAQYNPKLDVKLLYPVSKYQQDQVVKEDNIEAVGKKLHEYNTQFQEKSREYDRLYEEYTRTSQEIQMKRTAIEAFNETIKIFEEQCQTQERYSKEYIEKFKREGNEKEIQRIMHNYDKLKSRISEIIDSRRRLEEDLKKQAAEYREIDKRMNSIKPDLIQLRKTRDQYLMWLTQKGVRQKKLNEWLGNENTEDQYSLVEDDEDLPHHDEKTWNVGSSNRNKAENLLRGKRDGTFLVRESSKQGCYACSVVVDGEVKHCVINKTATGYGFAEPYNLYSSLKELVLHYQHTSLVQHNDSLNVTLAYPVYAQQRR

Chain of PI3Kα (P42336 whole entry, species assumed): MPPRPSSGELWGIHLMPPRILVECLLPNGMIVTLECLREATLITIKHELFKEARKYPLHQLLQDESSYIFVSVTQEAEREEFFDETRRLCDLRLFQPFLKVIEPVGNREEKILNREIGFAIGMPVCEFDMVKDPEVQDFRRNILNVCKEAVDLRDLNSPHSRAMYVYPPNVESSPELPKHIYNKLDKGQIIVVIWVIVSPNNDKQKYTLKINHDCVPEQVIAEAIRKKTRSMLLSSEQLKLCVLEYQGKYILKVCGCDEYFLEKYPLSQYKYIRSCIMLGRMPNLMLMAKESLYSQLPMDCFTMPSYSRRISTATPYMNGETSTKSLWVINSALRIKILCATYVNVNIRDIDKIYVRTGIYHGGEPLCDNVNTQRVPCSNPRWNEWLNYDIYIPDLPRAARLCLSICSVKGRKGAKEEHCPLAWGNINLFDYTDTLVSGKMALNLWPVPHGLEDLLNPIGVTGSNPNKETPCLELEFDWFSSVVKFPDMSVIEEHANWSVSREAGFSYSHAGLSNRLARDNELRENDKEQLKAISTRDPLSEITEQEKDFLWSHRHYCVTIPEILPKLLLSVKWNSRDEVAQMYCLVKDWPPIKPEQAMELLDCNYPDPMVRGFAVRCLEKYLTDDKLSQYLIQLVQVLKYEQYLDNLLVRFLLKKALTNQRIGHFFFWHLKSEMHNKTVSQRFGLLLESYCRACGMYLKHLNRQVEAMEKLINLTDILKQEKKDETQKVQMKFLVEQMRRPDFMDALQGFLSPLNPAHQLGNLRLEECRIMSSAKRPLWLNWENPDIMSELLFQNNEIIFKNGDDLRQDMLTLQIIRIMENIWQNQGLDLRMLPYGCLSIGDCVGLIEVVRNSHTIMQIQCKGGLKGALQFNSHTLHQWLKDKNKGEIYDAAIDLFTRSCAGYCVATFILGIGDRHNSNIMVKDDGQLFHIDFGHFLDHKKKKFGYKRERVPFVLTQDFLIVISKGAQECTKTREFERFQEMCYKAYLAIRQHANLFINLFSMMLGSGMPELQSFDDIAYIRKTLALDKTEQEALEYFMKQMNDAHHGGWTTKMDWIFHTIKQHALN
Chain of PI3Kγ (P48736 whole entry, species assumed): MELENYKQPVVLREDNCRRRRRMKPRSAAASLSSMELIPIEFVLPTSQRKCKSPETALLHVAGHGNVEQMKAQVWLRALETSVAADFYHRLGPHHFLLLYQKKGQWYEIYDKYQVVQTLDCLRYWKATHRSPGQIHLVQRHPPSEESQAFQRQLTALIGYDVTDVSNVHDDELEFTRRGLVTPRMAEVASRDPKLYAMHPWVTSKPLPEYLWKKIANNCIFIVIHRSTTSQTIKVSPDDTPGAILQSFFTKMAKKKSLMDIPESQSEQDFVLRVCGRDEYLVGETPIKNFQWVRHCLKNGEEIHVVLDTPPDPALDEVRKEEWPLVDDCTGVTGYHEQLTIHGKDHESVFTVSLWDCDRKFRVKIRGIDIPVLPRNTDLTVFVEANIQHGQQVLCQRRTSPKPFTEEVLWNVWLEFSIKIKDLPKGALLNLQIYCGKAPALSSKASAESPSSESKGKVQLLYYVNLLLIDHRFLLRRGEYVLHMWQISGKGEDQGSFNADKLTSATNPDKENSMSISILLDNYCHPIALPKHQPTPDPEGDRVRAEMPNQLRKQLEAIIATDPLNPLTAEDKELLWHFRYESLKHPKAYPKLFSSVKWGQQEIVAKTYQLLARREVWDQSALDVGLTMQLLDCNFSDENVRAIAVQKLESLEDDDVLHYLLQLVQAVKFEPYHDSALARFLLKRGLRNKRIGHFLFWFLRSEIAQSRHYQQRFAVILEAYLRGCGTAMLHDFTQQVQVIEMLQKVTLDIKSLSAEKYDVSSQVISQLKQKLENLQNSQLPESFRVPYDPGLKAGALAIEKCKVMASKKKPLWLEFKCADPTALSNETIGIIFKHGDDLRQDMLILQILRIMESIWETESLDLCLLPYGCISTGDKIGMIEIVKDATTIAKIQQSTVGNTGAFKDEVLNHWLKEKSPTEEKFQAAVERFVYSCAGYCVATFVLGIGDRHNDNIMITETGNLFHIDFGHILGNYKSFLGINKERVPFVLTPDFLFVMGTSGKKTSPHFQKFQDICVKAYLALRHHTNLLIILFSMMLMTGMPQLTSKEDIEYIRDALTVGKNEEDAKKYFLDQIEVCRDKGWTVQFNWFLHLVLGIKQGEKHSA

| SMILES | inhibition of pAkt (S473) in Tconvs (Tconvs (CD4+Foxp3-) [1]) | inhibition of pAkt (S473) in Tregs (Tregs (CD4+Foxp3+) [2]) | CD4 and CD8 cells in tumor (per 10^6 of CD45+CD3+) (Tregs (CD4+Foxp3+) [3]; 10 mg/kg, continuous treatment) | CD4 and CD8 cells under continuous treatment (Tregs (CD4+Foxp3+) [3]; day 26 vs day 12 baseline and vehicle) | IC50 (PI3Kα) | IC50 (PI3Kγ) | inhibition of proliferation of Tconvs (Tconvs (CD4+Foxp3-) [4]) | inhibition of proliferation of Tregs (Tregs (CD4+Foxp3+) [5]) | IC50 (PI3Kδ) |
| --- | --- | --- | --- | --- | --- | --- | --- | --- | --- |
| Cc1nc(NC(=O)N2CCC[C@H]2C(N)=O)sc1-c1csc(C(C)(C)C)n1 [A66] | No remarkable inhibition | No remarkable inhibition | – | – | – | – | – | – | – |
| CC[C@H](Nc1ncnc2[nH]cnc12)c1nc2cccc(F)c2c(=O)n1-c1ccccc1 [CAL-101] | no effect | – | no effect | no effect | – | – | – | – | – |
| Cc1cc(C(C)Nc2ccccc2)c2nc(N3CCOCC3)cc(=O)n2c1 (stereo not drawn) [TGX-221] | No remarkable inhibition | No remarkable inhibition | – | – | 5 µM | > 10 µM | no inhibition | no inhibition | 0.1 µM |
